Data on 16 compounds can be found in patent US8669208B2, “Herbicidal benzoxazinones” (BASF SE, priority 2010, dated 2014).

Where only a bound is given, the exact number is not on record here.

Common to all, as to assay type: in vivo
For assay [1], the system named is Abutilon theophrasti. Briefly: greenhouse herbicidal test, pre-emergence treatment. As to conditions: pre-emergence method, application rate 50 g/ha; scale from 0 to 100. From the text: (§1) The seeds of the test plants were sown separately for each species. For the pre-emergence treatment, the active ingredients, which had been suspended or emulsified in water, were applied directly after sowing by means of finely distributing nozzles. The containers were irrigated gently to promote germination and growth and subsequently covered with transparent plastic hoods until the plants had rooted. This cover caused uniform germination of the test plants, unless this has been impaired by the active ingredients. Depending on the species, the plants were kept at 10-25° C. or 20-35° C. The test period extended over 2 to 4 weeks. During this time, the plants were tended, and their response to the individual treatments was evaluated. Evaluation was carried out using a scale from 0 to 100. 100 means no emergence of the plants, or complete destruction of at least the aerial moieties, and 0 means no damage, or normal course of growth. A good herbicidal activity is given at values of at least 70 and a very good herbicidal activity is given at values of at least 85. The plants used in the greenhouse experiments belonged to the following species: [table]

A further assay relates to Amaranthus retroflexus. Described as above. As to conditions: pre-emergence method, scale from 0 to 100, read-out: herbicidal activity against Amaranthus retroflexus; for pest or weed control at 50 g/ha: application rate 50 g/ha; for pest or weed control at 25 g/ha: application rate 25 g/ha.
Text: as §1

A further assay relates to Chenopodium album. Described as above. Particulars: pre-emergence method, application rate 50 g/ha, scale from 0 to 100, read-out: herbicidal activity against Chenopodium album.
Text: as §1

In assay [2] the test system is Abutilon theophrasti. The experiment in a line: greenhouse herbicidal test, post-emergence treatment. As to conditions: post-emergence method, application rate 1000 g/ha; scale from 0 to 100. From the text: (§2) The seeds of the test plants were sown separately for each species. For the post-emergence treatment, the test plants were first grown to a height of 3 to 15 cm, depending on the plant habit, and only then treated with the active ingredients which had been suspended or emulsified in water. For this purpose, the test plants were either sown directly and grown in the same containers, or they were first grown separately as seedlings and transplanted into the test containers a few days prior to treatment. Depending on the species, the plants were kept at 10-25° C. or 20-35° C. The test period extended over 2 to 4 weeks. During this time, the plants were tended, and their response to the individual treatments was evaluated. Evaluation was carried out using a scale from 0 to 100. 100 means no emergence of the plants, or complete destruction of at least the aerial moieties, and 0 means no damage, or normal course of growth. A good herbicidal activity is given at values of at least 70 and a very good herbicidal activity is given at values of at least 85. The plants used in the greenhouse experiments belonged to the following species: [table]

The test system of the next assay is Amaranthus palmeri. Described as above. Particulars: post-emergence method, application rate 12.5 g/ha; scale from 0 to 100.
Text: as §2

In a further assay the test system is Kochia scoparia. The assay is described as above. Particulars: post-emergence method, application rate 12.5 g/ha; scale from 0 to 100.
Text: as §2

The next assay deals with Malva neglecta. Described as above. Particulars: post-emergence method, application rate 12.5 g/ha; scale from 0 to 100.
Text: as §2

In a further assay the test system is Viola arvensis. The experiment in a line: greenhouse herbicidal test, pre-emergence treatment. Particulars: pre-emergence method, application rate 25 g/ha; scale from 0 to 100.
Text: as §1

For `C#CCN1C(=O)C(F)(F)Oc2cc(F)c(N3C(=O)[C@H]4C[C@H](F)CN4C3=O)cc21` [Example 2, (6S,7aR)-6-Fluoro-2-(2,2,7-trifluoro-3-oxo-4-prop-2-ynyl-3,4-dihydro-2H-benzo[1,4]-oxazin-6-yl)-tetrahydro-pyrrolo[1,2-c]imidazole-1,3-dione], the “herbicidal activity against Abutilon theophrasti” value with Abutilon theophrasti [1] is “very good herbicidal activity (a very good herbicidal activity is given at values of at least 85)”. Further, the pest or weed control at 50 g/ha in the assay with Amaranthus retroflexus and with Chenopodium album was at least 85% throughout.

For `C#CCN1C(=O)C(F)(F)Oc2cc(F)c(-n3nc4n(c3=O)CCCC4)cc21` [Example 9], the “herbicidal activity against Abutilon theophrasti” value with Abutilon theophrasti [1] is given as “very good herbicidal activity (a very good herbicidal activity is given at values of at least 85)”. The pest or weed control at 50 g/ha with Amaranthus retroflexus and in the assay with Chenopodium album was at least 85% each time.

Regarding `C#CCN1C(=O)C(F)(F)Oc2cc(F)c(N3C(=O)OC(=C(C)C)C3=O)cc21` [Example 10], the “herbicidal activity against Abutilon theophrasti” value in the assay on Abutilon theophrasti [1] is listed as “very good herbicidal activity (a very good herbicidal activity is given at values of at least 85)”. For the same compound, the pest or weed control at 50 g/ha in the assay with Amaranthus retroflexus and in the assay with Chenopodium album was at least 85% throughout.

Turning to `C#CCN1C(=O)C(F)(F)Oc2cc(F)c(-n3nc(C)n(C(F)F)c3=O)cc21` [Example 11], in the assay with Abutilon theophrasti [1], the “herbicidal activity against Abutilon theophrasti” value is recorded as “very good herbicidal activity (a very good herbicidal activity is given at values of at least 85)”. Moreover, the pest or weed control at 50 g/ha in the assay with Amaranthus retroflexus and in the assay on Chenopodium album was at least 85% throughout.

`C#CCN1C(=O)C(F)(F)Oc2cc(F)c(-n3nc(C)nc3OC(F)F)cc21` [Example 12]: the “herbicidal activity against Abutilon theophrasti” value in the assay on Abutilon theophrasti [1] was “very good herbicidal activity (a very good herbicidal activity is given at values of at least 85)”. For the same compound, the pest or weed control at 50 g/ha in the assay with Amaranthus retroflexus and in the assay with Chenopodium album was at least 85% throughout.

As for `C#CCN1C(=O)C(F)(F)Oc2cc(F)c(/N=c3\snc4n3CC(C)(C)C4)cc21` [Example 13], the pest or weed control at 50 g/ha in the assay on Amaranthus retroflexus and in the assay on Chenopodium album was at least 85% throughout.

With `C#CCN1C(=O)C(F)(F)Oc2cc(F)c(N3C(=O)CC(C)CC3=O)cc21` [Example 14], the “herbicidal activity against Abutilon theophrasti” value in the assay on Abutilon theophrasti [1] is “very good herbicidal activity (a very good herbicidal activity is given at values of at least 85)”. Further, the pest or weed control at 50 g/ha in the assay on Amaranthus retroflexus and with Chenopodium album was at least 85% throughout.

Regarding `C#CCN1C(=O)C(F)(F)Oc2cc(F)c(N3C(=O)c4ccc(F)cc4C3=O)cc21` [Example 15], the pest or weed control at 50 g/ha in the assay with Amaranthus retroflexus and with Chenopodium album was at least 85% throughout.

For `C#CCN1C(=O)C(F)(F)Oc2cc(F)c(/N=c3\scc(C(F)(F)F)n3C)cc21` [Example 16], the pest or weed control at 50 g/ha in the assay on Amaranthus retroflexus and in the assay on Chenopodium album was at least 85% in each case.

`C#CCN1C(=O)C(F)(F)Oc2cc(F)c(N3C(=O)CC(=C(C)C)C3=O)cc21` [Example 17]: the pest or weed control at 50 g/ha in the assay with Amaranthus retroflexus and in the assay with Chenopodium album was at least 85% throughout.

Turning to `Cn1nc(-c2cc3c(cc2F)OC(F)(F)C(=O)N3)cc1C(F)(F)F` [Example 19], in the assay on Abutilon theophrasti [2], the “herbicidal activity against Abutilon theophrasti” value is listed as “very good herbicidal activity (a very good herbicidal activity is given at values of at least 85)”.

Consider `C#CCN1C(=O)C(F)(F)Oc2cc(F)c(-n3ncc(C(F)(F)F)c(C)c3=O)cc21` [Ia48, 2,2,7-Trifluoro-6-(5-methyl-6-oxo-4-trifluoromethyl-6H-pyridazin-1-yl)-4-prop-2-ynyl-4H-benzo[1,4]oxazin-3-one], for which the “herbicidal activity against Amaranthus palmeri” value with Amaranthus palmeri is “very good herbicidal activity (a very good herbicidal activity is given at values of at least 85)”. For the same compound, the “herbicidal activity against Kochia scoparia” value in the assay with Kochia scoparia is “very good herbicidal activity (a very good herbicidal activity is given at values of at least 85)”. For the same compound, the “herbicidal activity against Malva neglecta” value with Malva neglecta is “very good herbicidal activity (a very good herbicidal activity is given at values of at least 85)”. Also, in the assay with Amaranthus retroflexus, the pest or weed control at 25 g/ha was at least 85%. The “herbicidal activity against Viola arvensis” value with Viola arvensis is “very good herbicidal activity (a very good herbicidal activity is given at values of at least 85)”.

In the case of `C#CCN1C(=O)C(F)(F)Oc2cc(F)c(/N=c3\sc(=O)n4n3CCCC4)cc21` [If48], the “herbicidal activity against Abutilon theophrasti” value in the assay with Abutilon theophrasti [1] is recorded as “very good herbicidal activity (a very good herbicidal activity is given at values of at least 85)”. Besides, the pest or weed control at 50 g/ha with Amaranthus retroflexus and in the assay with Chenopodium album was at least 85% in each case.

With `C#CCN1C(=O)C(F)(F)Oc2cc(F)c(-n3nc(C(C)(C)C)oc3=O)cc21` [Ig48, 6-(5-tert-Butyl-2-oxo-[1,3,4]oxadiazol-3-yl)-2,2,7-trifluoro-4-prop-2-ynyl-4H-benzo[1,4]oxazin-3-one], the “herbicidal activity against Amaranthus palmeri” value in the assay on Amaranthus palmeri was “very good herbicidal activity (a very good herbicidal activity is given at values of at least 85)”. Besides, in the assay with Kochia scoparia, the “herbicidal activity against Kochia scoparia” value is given as “good herbicidal activity (A good herbicidal activity is given at values of at least 70)”. Also, the “herbicidal activity against Malva neglecta” value with Malva neglecta is reported as “very good herbicidal activity (a very good herbicidal activity is given at values of at least 85)”. Moreover, the pest or weed control at 25 g/ha with Amaranthus retroflexus was at least 85%. In addition, in the assay with Viola arvensis, the “herbicidal activity against Viola arvensis” value is recorded as “very good herbicidal activity (a very good herbicidal activity is given at values of at least 85)”.

Consider `C#CCN1C(=O)C(F)(F)Oc2cc(F)c(N3C(=O)C(=O)N(CCC)C3=S)cc21` [Ii48, 1-Propyl-2-thioxo-3-(2,2,7-trifluoro-3-oxo-4-prop-2-ynyl-3,4-dihydro-2H-benzo[1,4]oxazin-6-yl)-imidazolidine-4,5-dione], for which, in the assay with Kochia scoparia, the “herbicidal activity against Kochia scoparia” value is reported as “very good herbicidal activity (a very good herbicidal activity is given at values of at least 85)”. Further, in the assay on Malva neglecta, the “herbicidal activity against Malva neglecta” value is on record as “very good herbicidal activity (a very good herbicidal activity is given at values of at least 85)”.

Turning to `C#CCN1C(=O)C(F)(F)Oc2cc(F)c(-n3c(=O)c4ccccc4n(C)c3=O)cc21` [Ik48, 1-Methyl-3-(2,2,7-trifluoro-3-oxo-4-prop-2-ynyl-3,4-dihydro-2H-benzo[1,4]oxazin-6-yl)-1H-quinazoline-2,4-dione], the “herbicidal activity against Amaranthus palmeri” value in the assay on Amaranthus palmeri is on record as “very good herbicidal activity (a very good herbicidal activity is given at values of at least 85)”. Moreover, the “herbicidal activity against Kochia scoparia” value in the assay on Kochia scoparia is reported as “very good herbicidal activity (a very good herbicidal activity is given at values of at least 85)”. Moreover, in the assay with Malva neglecta, the “herbicidal activity against Malva neglecta” value is “very good herbicidal activity (a very good herbicidal activity is given at values of at least 85)”. In addition, in the assay on Amaranthus retroflexus, the pest or weed control at 25 g/ha is at least 85%. Moreover, the “herbicidal activity against Viola arvensis” value with Viola arvensis is “good herbicidal activity (A good herbicidal activity is given at values of at least 70)”.
